pIC50: −log10 of the molar value.

For the assay, the target named is T1, human TLR8 (Homo sapiens, UniProt Q9NR97).
T1 construct: host or cells: HEK293 (HEK-Blue hTLR8)
T1 sequence (Q9NR97 27-1041): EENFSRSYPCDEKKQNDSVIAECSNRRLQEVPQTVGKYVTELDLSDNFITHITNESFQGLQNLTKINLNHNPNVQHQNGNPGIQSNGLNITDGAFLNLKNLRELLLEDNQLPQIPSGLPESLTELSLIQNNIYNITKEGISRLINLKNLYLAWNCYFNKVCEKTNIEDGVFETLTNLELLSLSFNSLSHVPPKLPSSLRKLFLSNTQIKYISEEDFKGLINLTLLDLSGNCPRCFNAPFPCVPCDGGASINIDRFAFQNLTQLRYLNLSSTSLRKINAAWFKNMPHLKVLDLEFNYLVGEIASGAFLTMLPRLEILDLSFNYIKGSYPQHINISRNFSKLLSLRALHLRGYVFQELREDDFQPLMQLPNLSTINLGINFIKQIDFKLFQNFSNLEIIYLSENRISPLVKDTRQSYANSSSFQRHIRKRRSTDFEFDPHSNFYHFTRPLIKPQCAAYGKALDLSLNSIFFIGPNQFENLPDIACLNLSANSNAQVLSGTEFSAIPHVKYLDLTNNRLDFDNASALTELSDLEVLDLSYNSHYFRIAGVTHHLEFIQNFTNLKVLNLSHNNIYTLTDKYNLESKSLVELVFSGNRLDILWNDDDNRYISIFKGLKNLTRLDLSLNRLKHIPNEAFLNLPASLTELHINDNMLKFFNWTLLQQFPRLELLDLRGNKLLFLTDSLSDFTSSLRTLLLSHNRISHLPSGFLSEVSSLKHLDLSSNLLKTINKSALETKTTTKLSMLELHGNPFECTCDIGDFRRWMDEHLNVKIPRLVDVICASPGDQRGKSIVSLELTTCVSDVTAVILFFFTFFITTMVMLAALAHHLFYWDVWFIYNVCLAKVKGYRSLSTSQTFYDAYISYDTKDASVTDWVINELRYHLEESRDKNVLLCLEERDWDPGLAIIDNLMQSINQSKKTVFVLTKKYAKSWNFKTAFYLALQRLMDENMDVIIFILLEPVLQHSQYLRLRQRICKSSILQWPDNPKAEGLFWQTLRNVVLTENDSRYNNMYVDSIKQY
Nature of the assay: HEK293-Blue-hTLR-8 cells assay. Type of assay: cell-based. The conditions noted are these: HEK293-Blue-hTLR8 cells, R848 stimulation, 20 hrs, SEAP reporter; read-out: HEK/hTLR8 IC50. The source says: A stable HEK293-Blue-hTLR-8 cell line was purchased from InvivoGen (Cat. #: hkb-htlr8, San Diego, Calif., USA). These cells were originally designed for studying the stimulation of human TLR8 by monitoring the activation of NF-κB. A SEAP (secreted embryonic alkaline phosphatase) reporter gene was placed under the control of the IFN-β minimal promoter fused to five NF-κB and AP-1-binding sites. The SEAP was induced by activating NF-κB and AP-1 via stimulating HEK-Blue hTLR8 cells with TLR8 ligands. Therefore the reporter expression was declined by TLR8 antagonist under the stimulation of a ligand, such as R848, for incubation of 20 hrs. The cell culture supernatant SEAP reporter activity was determined using QUANTI-Blue™ kit (Cat. #: rep-qb1, Invivogen, San Diego, Ca, USA) at a wavelength of 640 nm, a detection medium that turns purple or blue in the presence of alkaline phosphatase.
HEK293-Blue-hTLR8 cells were incubated at a density of 250,000-450,000 cells/mL in a volume of 170 μL in a 96-well plate in Dulbecco's Modified Eagle's medium (DMEM) containing 4.5 g/L glucose, 50 U/mL penicillin, […], […], 2 mM L-glutamine, 10% (v/v) heat-inactivated fetal bovine serum with addition of 20 μL test compound in a serial dilution in the presence of final DMSO at 1% and 10 μL of 60 uM R848 in above DMEM, perform incubation under 37° C. in a CO2 incubator for 20 hrs. Then 20 μL of the supernatant from each well was incubated with […] Quanti-blue substrate solution at 37° C. for 2 hrs and the absorbance was read at 620-655 nm using a spectrophotometer. The signaling pathway that TLR8 activation leads to downstream NF-κB activation has been widely accepted, and therefore similar reporter assay was modified for evaluating TLR8 antagonist.
On to `C[C@@H]1CN(c2ccc(C#N)c3ncccc23)C[C@H](CN2CC(n3cc4c(n3)CCN[C@H]4C)C2)O1` [Example 23, 5-[(2R,6S)-2-methyl-6-[[3-[(4S)-4-methyl-4,5,6,7-tetrahydropyrazolo[4,3-c]pyridin-2-yl]azetidin-1-yl]methyl]morpholin-4-yl]quinoline-8-carbonitrile], for which the pIC50 was 7.36.

Regarding `C[C@@H]1CN(c2ccc(C#N)c3ncccc23)C[C@H](CN2CCC(n3ncc4c3CCNC4)CC2)O1` [Example 35, 5-[(2R,6S)-2-methyl-6-[[4-(4,5,6,7-tetrahydropyrazolo[4,3-c]pyridin-1-yl)-1-piperidyl]methyl]morpholin-4-yl]quinoline-8-carbonitrile], the pIC50 was 7.60.

As to `C[C@@H]1CN(c2ccc(C#N)c3ncccc23)C[C@H](CN2CCC(n3cc4c(n3)CCNC4)CC2)O1` [Example 36, 5-[(2R,6S)-2-methyl-6-[[4-(4,5,6,7-tetrahydropyrazolo[4,3-c]pyridin-2-yl)-1-piperidyl]methyl]morpholin-4-yl]quinoline-8-carbonitrile], the pIC50 is 7.40.

On to `Cc1c2c(nn1C1CN(C[C@H]3CN(c4ccc(C#N)c5ncccc45)C[C@@H](C)O3)C1)CCNC2` [Example 13, 5-[(2R,6S)-2-methyl-6-[[3-(3-methyl-4,5,6,7-tetrahydropyrazolo[4,3-c]pyridin-2-yl)azetidin-1-yl]methyl]morpholin-4-yl]quinoline-8-carbonitrile], for which the pIC50 is 7.35.

For `C[C@@H]1CN(c2ccc(C#N)c3ncccc23)C[C@H](CN2CC(n3cc4c(n3)[C@H](C)CNC4)C2)O1` (single isomer, unassigned) [Example 25], the pIC50 is 7.96.

Consider `C[C@@H]1CN(c2ccc(C#N)c3ncccc23)C[C@H](CN2CC(n3cc4c(n3)CCN[C@@H]4C)C2)O1` [Example 21, 5-[(2R,6S)-2-methyl-6-[[3-[(4R)-4-methyl-4,5,6,7-tetrahydropyrazolo[4,3-c]pyridin-2-yl]azetidin-1-yl]methyl]morpholin-4-yl]quinoline-8-carbonitrile], for which the pIC50 was 7.14.

Regarding `C[C@@H]1CN(c2ccc(C#N)c3ncccc23)C[C@H](CN2CC(n3ncc4c3CNC4)C2)O1` [Example 10, 5-[(2S,6R)-2-[[3-(5,6-dihydro-4H-pyrrolo[3,4-c]pyrazol-1-yl)azetidin-1-yl]methyl]-6-methyl-morpholin-4-yl]quinoline-8-carbonitrile], the pIC50 was 7.72.

For the compound `C[C@@H]1CN(c2ccc(C#N)c3ncccc23)C[C@H](CN2CC(n3cc4c(n3)C(C)(C)CNC4)C2)O1` [Example 24, 5-[(2S,6R)-2-[[3-(7,7-dimethyl-5,6-dihydro-4H-pyrazolo[4,3-c]pyridin-2-yl)azetidin-1-yl]methyl]-6-methyl-morpholin-4-yl]quinoline-8-carbonitrile], the pIC50 is 7.85.

`C[C@@H]1CN(c2ccc(C#N)c3ncccc23)C[C@H](CN2CC(n3cc4c(n3)CN(C)CC4)C2)O1` [Example 5, 5-[(2R,6S)-2-methyl-6-[[3-(6-methyl-5,7-dihydro-4H-pyrazolo[3,4-c]pyridin-2-yl)azetidin-1-yl]methyl]morpholin-4-yl]quinoline-8-carbonitrile]: the pIC50 was 8.22.

`C[C@@H]1CN(c2ccc(C#N)c3ncccc23)C[C@H](CN2CC(n3ncc4c3CCNC4)C2)O1` [Example 1, 5-[(2R,6S)-2-methyl-6-[[3-(4,5,6,7-tetrahydropyrazolo[4,3-c]pyridin-1-yl)azetidin-1-yl]methyl]morpholin-4-yl]quinoline-8-carbonitrile]: the pIC50 was 7.77.

For the compound `C[C@@H]1CN(c2ccc(C#N)c3ncccc23)C[C@H](CN2CC(n3cc4c(n3)CNC4)C2)O1` [Example 11, 5-[(2S,6R)-2-[[3-(5,6-dihydro-4H-pyrrolo[3,4-c]pyrazol-2-yl)azetidin-1-yl]methyl]-6-methyl-morpholin-4-yl]quinoline-8-carbonitrile], the pIC50 is 7.72.

As to `Cc1nn(C2CN(C[C@H]3CN(c4ccc(C#N)c5ncccc45)C[C@@H](C)O3)C2)c2c1CNCC2` [Example 12, 5-[(2R,6S)-2-methyl-6-[[3-(3-methyl-4,5,6,7-tetrahydropyrazolo[4,3-c]pyridin-1-yl)azetidin-1-yl]methyl]morpholin-4-yl]quinoline-8-carbonitrile], the pIC50 was 7.36.

In the case of `C[C@@H]1Cc2c(cnn2C2CN(C[C@H]3CN(c4ccc(C#N)c5ncccc45)C[C@@H](C)O3)C2)CN1` [Example 16, 5-[(2R,6S)-2-methyl-6-[[3-[(6R)-6-methyl-4,5,6,7-tetrahydropyrazolo[4,3-c]pyridin-1-yl]azetidin-1-yl]methyl]morpholin-4-yl]quinoline-8-carbonitrile], the pIC50 was 7.80.

Regarding `C[C@@H]1CN(c2ccc(C#N)c3ncccc23)C[C@H](CN2CC(n3ncc4c3CN[C@@H](C)C4)C2)O1` (single isomer, unassigned) [Example 27], the pIC50 was 8.10.

In the case of `C[C@@H]1CN(c2ccc(C#N)c3ncccc23)C[C@H](CN2CC(n3cc4c(n3)[C@@H](C)NCC4)C2)O1` (single isomer, unassigned) [Example 33], the pIC50 is 7.89.

In the case of `CC(C)N1CCc2cnn(C3CN(C[C@H]4CN(c5ccc(C#N)c6ncccc56)C[C@@H](C)O4)C3)c2C1` [Example 8, 5-[(2S,6R)-2-[[3-(6-isopropyl-5,7-dihydro-4H-pyrazolo[3,4-c]pyridin-1-yl)azetidin-1-yl]methyl]-6-methyl-morpholin-4-yl]quinoline-8-carbonitrile], the pIC50 is 8.30.

Values taken from patent US20210300924A1, “5-[6-[[3-(4,5,6,7-TETRAHYDROPYRAZOLO[4,3-C]PYRIDIN-1-YL)AZETIDIN-1-YL]METHYL]MORPHOLIN-4-YL]QUINOLINE-8-CARBONITRILE DERIVATIVES AND SIMILAR COMPOUNDS AS TLR7-9 ANTAGONISTS FOR TREATING SYSTEMIC LUPUS ERYTHEMATOSUS” (Hoffmann-La Roche Inc., priority 2018, published 2021).
